Measurements reported in patent US5652353A, “DNAs encoding tumor necrosis factor-α muteins” (priority 1990, dated 1997).

Legend:
[1] = test system: Hep-2 cells; assay type: cell-based, human; conditions: in words; accuracy of assay a factor of 3
Procedure: (§1) The amount of protein was determined by the Biorad (Richmond, Calif., USA) protein dye reagent according to the instructions of the manufacturer. The purity of the TNF muteins was determined by SDS-PAGE. The cytotoxic activity on mouse L929 cells was determined using the standard L929 assay (Ruff and Gifford in "Lymphokines", ed. by E. Pick, Vol. 2, 235-275, Academic Press, 1981, Orlando, USA). The cytotoxicity assay on Hep-2 cells was performed the same way as the L929 assay with the only exception that cycloheximide (50 μg/ml) was added instead of actinomycin D.

[2] = test system: human p55-TNF-R; test: Filter binding competition of 125I-TNFα on purified p55-TNF-R from HL60 cells; conditions: with respect to TNFα
Procedure: (§2) The filters were blocked with blocking buffer (50 mM Tris, 140 mM NaCl, 5 mM EDTA, 0.02% NaN3, 1% defatted milk powder) for 1.5 hours at room temperature. […] The filters were washed with blocking buffer (2× for 5 min.) and with H2 O (1× for 5 min.), air dried, and counted in a γ-counter.

[3] = test system: U937 cells (predominantly but not exclusively p75-TNF-R); test: Competition analysis: displacement of 125I-TNF-α by unlabeled mutant TNF on U937 cells; assay type: binding, human; conditions: for Mean dpm: Table B
Procedure: Hep-2 [ATCC No. CCL 23], U937 [ATCC No. CRL 1593] and RAJI [ATCC No. CCL 86] cells were grown in RPMI 1640 medium, supplemented with 10% (v/v) inactivated .fetal calf serum, L-glutamine (2 mM), sodium pyruvate (1 mM), 2-mercaptoethanol (5×10^-5 M), 1% of a 100× mixture of non-essential amino acids [Gibro Laboratories, Paisley, GB] and gentamycine ([…]). The non-adherent cells (U937 and RAJI) were harvested after reaching a density of 1×10^6 cells/ml. For binding experiments, the adherent Hep-2 cells were grown to confluency, trypsinized, collected and seeded in large. Petri dishes (150 cm^2) at a density of 2.5×10^6 cells/ml. Subsequently, the dishes were placed in a CO2 -incubator overnight. Because Hep-2 cells are not strongly adherent, the cells could be harvested the same way as the non-adherent cells. Dulbecco's medium, supplemented with 10% inactivated newborn calf serum was used for L929 cell growth. […] A ten well dilution series of unlabeled mutant TNF ([…] to 0.004 μM) in concentration steps in multiples of 2 was set up in a microtiterplate. […] After addition of 2×10^6 cells, the total volume was 0.2 ml/well. The medium of incubation, reaction conditions and isolation of the cells were exactly the same as described above for the Scatchard analysis experiments. […] The following experimental data were used for such calculations: From each experiment shown in these tables, the KD value was calculated using the programm of Mc. Pherson et al. (1985).

[4] = test system: mouse L929 cells; test: Standard L929 cytotoxicity assay; assay type: cell-based; conditions: relative to TNF-α
Procedure: as §1

[5] = test system: human p75-TNF-R; test: Filter binding competition of 125I-TNFα on purified p75-TNF-R from HL60 cells
Procedure: as §2

Substance: Trp^32 -TNFα: TNF-α mutein with tryptophan substituted at position 32, SEQ ID No: 9
- biological activity (specific activity) on Hep-2 cells [1]: largely retained
- Decrease in Affinity [2]: 1.5 fold
- binding affinity for p75-TNF-R as share of its binding affinity to p55-TNF-R [3]: about 3%
- Mean dpm ([3]; experiment 1, U937 cells, concentration of mutant 1 × 10^-6): 777 dpm
- Mean dpm ([3]; experiment 1, U937 cells, concentration of mutant 1 × 10^-9): 1917 dpm
- Mean dpm ([3]; experiment 1, U937 cells, concentration of mutant 1.25 × 10^-7): 1166 dpm
- Mean dpm ([3]; experiment 1, U937 cells, concentration of mutant 1.5 × 10^-8): 1488 dpm
- Mean dpm ([3]; experiment 1, U937 cells, concentration of mutant 2 × 10^-6): 628 dpm
- Mean dpm ([3]; experiment 1, U937 cells, concentration of mutant 2 × 10^-9): 1698 dpm
- Mean dpm ([3]; experiment 1, U937 cells, concentration of mutant 3 × 10^-8): 1377 dpm
- Mean dpm ([3]; experiment 1, U937 cells, concentration of mutant 4 × 10^-9): 1655 dpm
- Mean dpm ([3]; experiment 1, U937 cells, concentration of mutant 5 × 10^-7): 953 dpm
- Mean dpm ([3]; experiment 1, U937 cells, concentration of mutant 6 × 10^-8): 1333 dpm
- Mean dpm ([3]; experiment 1, U937 cells, concentration of mutant 8 × 10^-9): 1585 dpm
- Mean dpm ([3]; experiment 1, U937 cells, concentration of mutant […] 10^-7): 1026 dpm
- Mean dpm ([3]; experiment 2, U937 cells, concentration of mutant 1.10^-6): 357 dpm
- Mean dpm ([3]; experiment 2, U937 cells, concentration of mutant 1.2 × 10^-7): 508 dpm
- Mean dpm ([3]; experiment 2, U937 cells, concentration of mutant 1.5 × 10^-8): 636 dpm
- Mean dpm ([3]; experiment 2, U937 cells, concentration of mutant 2 × 10^-6): 294 dpm
- Mean dpm ([3]; experiment 2, U937 cells, concentration of mutant 3 × 10^-8): 585 dpm
- Mean dpm ([3]; experiment 2, U937 cells, concentration of mutant 4 × 10^9): 653 dpm
- Mean dpm ([3]; experiment 2, U937 cells, concentration of mutant 5 × 10^-7): 422 dpm
- Mean dpm ([3]; experiment 2, U937 cells, concentration of mutant 6 × 10^-8): 546 dpm
- Mean dpm ([3]; experiment 2, U937 cells, concentration of mutant 8 × 10^-9): 629 dpm
- Mean dpm ([3]; experiment 2, U937 cells, concentration of mutant […] 10^-7): 479 dpm
- Mean dpm ([3]; experiment 3 (125I-TNF batch 2), U937 cells, concentration of mutant 1 × 10^-6): 1192 dpm
- Mean dpm ([3]; experiment 3 (125I-TNF batch 2), U937 cells, concentration of mutant 1.25 × 10^-7): 2387 dpm
- Mean dpm ([3]; experiment 3 (125I-TNF batch 2), U937 cells, concentration of mutant 1.5 × 10^-8): 3620 dpm
- Mean dpm ([3]; experiment 3 (125I-TNF batch 2), U937 cells, concentration of mutant 2 × 10^-6): 814 dpm
- Mean dpm ([3]; experiment 3 (125I-TNF batch 2), U937 cells, concentration of mutant 3 × 10^-8): 3275 dpm
- Mean dpm ([3]; experiment 3 (125I-TNF batch 2), U937 cells, concentration of mutant 4 × 10^-9): 4759 dpm
- Mean dpm ([3]; experiment 3 (125I-TNF batch 2), U937 cells, concentration of mutant 5 × 10^-7): 1472 dpm
- Mean dpm ([3]; experiment 3 (125I-TNF batch 2), U937 cells, concentration of mutant 6 × 10^-8): 3034 dpm
- Mean dpm ([3]; experiment 3 (125I-TNF batch 2), U937 cells, concentration of mutant 8 × 10^-9): 4041 dpm
- Mean dpm ([3]; experiment 3 (125I-TNF batch 2), U937 cells, concentration of mutant […] 10^-7): 1981 dpm
- reduction of binding affinity for p75-TNF-R ([3]; relative to its binding affinity to p55-TNF-R): approximately 33 fold
- decrease of biological activity on L929 cells (factor) [4]: more than 100
- IC50 ([5]; competition with 125I-TNFα): 5 µg/mL
- Decrease in Affinity ([5]; with respect to TNFα): 500 fold
